In patent US7977371B2, “Pyrrole derivative having ureido group and aminocarbonyl group as substituents” (Santen Pharmaceutical Co., Ltd., priority 2007, dated 2011):

System: TNF-α-induced IL-6 production in normal human skin fibroblast-derived CCD-1059Sk cells
Assay: Test for measurement of inhibitory activity against TNF-α-induced IL-6 production
Format: cell-based
Settings: Homo sapiens, CCD-1059Sk, 16 h, test compound at 10 μM, TNF-α stimulation 16 hours, inhibition ratio of 100% or more is indicated as 100%
Protocol: 1. Test for Measurement of Inhibitory Activity Against IL-6 Production
An inhibitory effect on TNF-α-induced IL-6 production in normal human skin fibroblast-derived CCD-1059Sk cells (ATCC No. CRL-2072) was evaluated. The amount of IL-6 was determined by the homogeneous time-resolved fluorescence method using HTRF™ Human IL-6 kit (Cat. No. 62IL6PEB, manufactured by CIS-Bio international, Inc.). Specific test methods will be described below.
(Preparation of Test Compound Solution)
After a test compound was dissolved in dimethyl sulfoxide, the resulting solution was diluted with D-MEM medium containing 0.1% heat-inactivated fetal bovine serum, 0.1 mM MEM non-essential amino acid solution, 100 U/mL penicillin and 100 μg/mL streptomycin (hereinafter referred to as “medium”), whereby a 40 μM test compound solution was prepared.
(Test Method and Measurement Method)
1) CCD-1059Sk cells prepared at a density of 3×10^5 cells/mL were inoculated in a 384-well plate in an amount of 10 μL per well such that the cell density was 3×10^3 cells/well.
2). After the plate was incubated at 37° C. for several hours in a CO2 incubator, 5 μL of the test compound was added to each well.
3) After the plate was incubated at 37° C. for 1 hour in a CO2 incubator, 5 μL of a 40 ng/mL TNF-α solution was added to each well.
4) After the plate was incubated at 37° C. for 16 hours in a CO2 incubator, 10 μL of a cryptate-labeled anti-IL-6 antibody and an XL665-labeled anti-IL-6 antibody containing potassium fluoride was added to each well.
5) After the plate was incubated at room temperature for several hours, a fluorescence intensity ratio (665 nm/620 nm) was determined for each well using a multimode plate reader Analyse™ HT (manufactured by Molecular Device Corporation) and Criterion Host software version 2.00 (manufactured by Molecular Device Corporation), and then, the amount of IL-6 was calculated.
6) The same procedures as in the above 1) to 5) were performed except that 0.4% dimethyl sulfoxide was added in place of the test compound, and the obtained result was designated as the control.
7) The same procedures as in the above 1) to 5) were performed except that 0.4% dimethyl sulfoxide and the medium were added in place of the test compound and the TNF-α solution, respectively, and the obtained result was designated as the background.
(Calculation Formula of IL-6 Production Inhibition Ratio)
An IL-6 production inhibition ratio (%) was calculated from the following formula. IL-6 Production Inhibition Ratio (%)=100×{1−[(Amount of IL-6 for Test Compound)−(Amount of IL-6 for Background)/(Amount of IL-6 for Control)−(Amount of IL-6 for Background)]} (Evaluation Results)

SMILES	inhibition at 10 µM [%]
C#CCOc1ccc(Cl)cc1-c1cc(C(N)=O)c(NC(N)=O)[nH]1 [Compound 4-50, 2-Aminocarbonylamino-5-[5-chloro-2-(2-propynyloxy)phenyl]pyrrole-3-carboxamide]	100
C#Cc1cccc(-c2cc(C(N)=O)c(NC(N)=O)[nH]2)c1 [Compound 11-1, 2-Aminocarbonylamino-5-(3-ethynylphenyl)pyrrole-3-carboxamide]	100
NC(=O)Nc1[nH]c(-c2ccccc2OCCCN2CCCC2)cc1C(N)=O [Compound 8-1, 2-Aminocarbonylamino-5-[2-[3-(pyrrolidin-1-yl)propyloxy]phenyl]pyrrole-3-carboxamide]	97
CN1CCN(CCOc2ccccc2-c2cc(C(N)=O)c(NC(N)=O)[nH]2)CC1 [Compound 8-2]	77
CN(CCO)CCOc1ccccc1-c1cc(C(N)=O)c(NC(N)=O)[nH]1 [Compound 8-11]	96
Cc1c(-c2ccc(Br)cc2)[nH]c(NC(N)=O)c1C(N)=O [Compound 1-21, 2-Aminocarbonylamino-5-(4-bromophenyl)-4-methylpyrrole-3-carboxamide]	88
CCSc1cccc(-c2cc(C(N)=O)c(NC(N)=O)[nH]2)c1 [Compound 1-44, 2-Aminocarbonylamino-5-(3-ethylthiophenyl) pyrrole-3-carboxamide]	92
Cc1ccccc1-c1cc(C(N)=O)c(NC(N)=O)[nH]1 [Compound 1-42, 2-Aminocarbonylamino-5-(2-methylphenyl) pyrrole-3-carboxamide]	94
NC(=O)Nc1[nH]c(-c2ccccc2OCc2cccnc2)cc1C(N)=O [Compound 4-15, 2-Aminocarbonylamino-5-[2-(pyridin-3-ylmethyloxy)phenyl]pyrrole-3-carboxamide]	91
NC(=O)Nc1[nH]c(-c2ccccc2OCC2CC2)cc1C(N)=O [Compound 4-23, 2-Aminocarbonylamino-5-(2-cyclopropylmethyloxyphenyl) pyrrole-3-carboxamide]	97
CCOc1ccc(Cl)cc1-c1cc(C(N)=O)c(NC(N)=O)[nH]1 [Compound 4-48, 2-Aminocarbonylamino-5-(5-chloro-2-ethoxyphenyl)pyrrole-3-carboxamide]	100
Cc1ccc(-c2cc(C(N)=O)c(NC(N)=O)[nH]2)cc1 [Compound 1-11, 2-Aminocarbonylamino-5-(4-methylphenyl) pyrrole-3-carboxamide]	88
N#Cc1cccc(-c2cc(C(N)=O)c(NC(N)=O)[nH]2)c1 [Compound 1-39, 2-Aminocarbonylamino-5-(3-cyanophenyl) pyrrole-3-carboxamide]	99
COc1cc(C)c(Cl)cc1-c1cc(C(N)=O)c(NC(N)=O)[nH]1 [Compound 1-24, 2-Aminocarbonylamino-5-(5-chloro-2-methoxy-4-methylphenyl)pyrrole-3-carboxamide]	99
CNCc1c(-c2cccc(Cl)c2)[nH]c(NC(N)=O)c1C(N)=O [Compound 19-1, 2-Aminocarbonylamino-5-(3-chlorophenyl)-4-(methylaminomethyl)pyrrole-3-carboxamide]	97
CN(C)CCCOc1ccccc1-c1cc(C(N)=O)c(NC(N)=O)[nH]1 [Compound 4-30, 2-Aminocarbonylamino-5-[2-(3-dimethylaminopropyloxy)phenyl]pyrrole-3-carboxamide]	99
N#CCOc1ccccc1-c1cc(C(N)=O)c(NC(N)=O)[nH]1 [Compound 4-1, 2-Aminocarbonylamino-5-(2-cyanomethyloxyphenyl)pyrrole-3-carboxamide]	96
NC(=O)Nc1[nH]c(-c2ccc(-c3ccccc3)cc2)cc1C(N)=O [Compound 1-5, 2-Aminocarbonylamino-5-(4-biphenyl) pyrrole-3-carboxamide]	67
NC(=O)Nc1[nH]c(-c2cc(F)ccc2F)cc1C(N)=O [Compound 1-53, 2-Aminocarbonylamino-5-(2,5-difluorophenyl) pyrrole-3-carboxamide]	94
NC(=O)Nc1[nH]c(-c2ccccc2OCCN2CCOCC2)cc1C(N)=O [Compound 8-3]	95

SMILES	inhibition at 10 µM [%]
NC(=O)Nc1[nH]c(-c2cc(F)ccc2OCCCO)cc1C(N)=O [Compound 4-35, 2-Aminocarbonylamino-5-[5-fluoro-2-(3-hydroxypropyloxy)phenyl]pyrrole-3-carboxamide]	100
NC(=O)Nc1[nH]c(-c2ccccc2O)cc1C(N)=O [Compound 3-1, 2-Aminocarbonylamino-5-(2-hydroxyphenyl)pyrrole-3-carboxamide]	95
N#CCOc1cccc(-c2cc(C(N)=O)c(NC(N)=O)[nH]2)c1 [Compound 4-9, 2-Aminocarbonylamino-5-(3-cyanomethyloxyphenyl) pyrrole-3-carboxamide]	89
NC(=O)Nc1[nH]c(-c2cccc(F)c2)cc1C(N)=O [Compound 1-28, 2-Aminocarbonylamino-5-(3-fluorophenyl) pyrrole-3-carboxamide]	97
COc1ccc(-c2cc(C(N)=O)c(NC(N)=O)[nH]2)cc1Cl [Compound 1-37, 2-Aminocarbonylamino-5-(3-chloro-4-methoxyphenyl)pyrrole-3-carboxamide]	98
NC(=O)Nc1[nH]c(-c2cc(F)c(F)cc2F)cc1C(N)=O [Compound 1-52, 2-Aminocarbonylamino-5-(2,4,5-trifluorophenyl) pyrrole-3-carboxamide]	93
NC(=O)Nc1[nH]c(-c2ccc(F)cc2)c(Cl)c1C(N)=O [Compound 7-3]	98
CCOC(=O)c1ccc(-c2cc(C(N)=O)c(NC(N)=O)[nH]2)cc1 [Compound 1-30, 2-Aminocarbonylamino-5-(4-ethoxycarbonylphenyl) pyrrole-3-carboxamide]	90
NC(=O)Nc1[nH]c(-c2ccccc2OCCCF)cc1C(N)=O [Compound 4-24, 2-Aminocarbonylamino-5-[2-(3-fluoropropyloxy)phenyl] pyrrole-3-carboxamide]	99
CN1CCCC1CCOc1ccccc1-c1cc(C(N)=O)c(NC(N)=O)[nH]1 (stereo not shown) [Compound 4-32, 2-Aminocarbonylamino-5-[2-[2-(1-methylpyrrolidin-2-yl)ethyloxy]phenyl]pyrrole-3-carboxamide]	99
COc1ccc(OC)c(-c2cc(C(N)=O)c(NC(N)=O)[nH]2)c1 [Compound 1-17, 2-Aminocarbonylamino-5-(2,5-dimethoxyphenyl) pyrrole-3-carboxamide]	96
NC(=O)Nc1[nH]c(-c2cc(F)ccc2OCCN2CCCC2)cc1C(N)=O [Compound 8-12]	100
NC(=O)Nc1[nH]c(-c2ccccc2F)cc1C(N)=O [Compound 1-45, 2-Aminocarbonylamino-5-(2-fluorophenyl) pyrrole-3-carboxamide]	95
Cc1cc(-c2cc(C(N)=O)c(NC(N)=O)[nH]2)c(C)s1 [Compound 1-51, 2-Aminocarbonylamino-5-(2,5-dimethylthiophen-3-yl)pyrrole-3-carboxamide]	96
CN(CCO)CCOc1ccc(F)cc1-c1cc(C(N)=O)c(NC(N)=O)[nH]1 [Compound 8-17]	100
CSCCOc1ccc(F)cc1-c1cc(C(N)=O)c(NC(N)=O)[nH]1 [Compound 8-18]	100
CCOc1ccccc1-c1cc(C(N)=O)c(NC(N)=O)[nH]1 [Compound 4-11, 2-Aminocarbonylamino-5-(2-ethoxyphenyl)pyrrole-3-carboxamide]	97
CCOc1ccc(F)cc1-c1cc(C(N)=O)c(NC(N)=O)[nH]1 [Compound 4-47, 2-Aminocarbonylamino-5-(2-ethoxy-5-fluorophenyl)pyrrole-3-carboxamide]	100
NC(=O)Nc1[nH]c(-c2ccccc2)cc1C(N)=O [Compound 1-4, 2-Aminocarbonylamino-5-phenylpyrrole-3-carboxamide]	88

Same assay, conditions: Homo sapiens, test compound at 10 μM, TNF-α stimulation 16 hours, inhibition ratio of 100% or more is indicated as 100%

SMILES	inhibition at 10 µM [%]
CCCNC(=O)Oc1ccccc1-c1cc(C(N)=O)c(NC(N)=O)[nH]1 [Compound 6-1, 2-Aminocarbonylamino-5-(2-propylaminocarbonyloxyphenyl)pyrrole-3-carboxamide]	99
